Experimental data as given in US11090321B2, “Mixture of non-digestible oligosaccharides for stimulating the immune system” (N.V. Nutricia, priority 2009, dated 2021).

Tested on: C57BL/6 mice
Assay: Delayed-type hypersensitivity (DTH) ear swelling response after Influvac vaccination in diet-supplemented mice
Type: in vivo, mouse
Experimental: The effect of diets comprising 2′-FL and/or betagalacto-oligosaccharides was tested in a mouse model wherein a response to an antigen is measured by a delayed-type hypersensitivity (DTH) response. This DTH response in the ears after local challenge with an antigen present in a vaccine is a measure of Th1 cell proliferation. During response to infection and/or vaccination Th1 cells proliferate in response to the challenge with the antigen. These Th1 cells infiltrate the ear when the ear is subsequently challenged with the antigen and cause swelling. Infiltration with the Th1 cells in the ear takes about 24 h and the swelling is therefore delayed. The more Th1 cells proliferated during initial vaccination and/or infection, the more DTH upon challenging with the antigen is observed.
6-8 Weeks old female C57BL/6 mice (Charles River) received semi-purified AIN-93G-based diets (Research Diet Service, Wijk bij Duurstede, the Netherlands), comprising
1) 1 wt % betagalacto-oligosaccharide (GOS, source Vivinal GOS, Borculo Domo), fructo-oligosaccharide (FOS, Source RaftilineHP, Orafti) and galacturonic acid oligosaccharide (source AOS) in a 9:1:1.1 ratio. AOS were produced from pectin (Südzucker AG, Mannheim, Germany), with a DP of 1-20. It consists of approximately 75% galacturonic acid oligomers, based on total weight,
2) 1 wt % 2′fucosyllactose (2′-FL),
3) 1 wt % betagalacto-oligosaccharides, fructo-oligosaccharides and galacturonic acid oligosaccharide (AOS) in a 9:1:1.1 ratio and 1 wt % 2′-FL.
4) 0.5 wt % betagalacto-oligosaccharides, fructo-oligosaccharides and galacturonic acid oligosaccharide (AOS) in a 9:1:1.1 ratio and 0.5 wt % 2′-FL.
All groups were compared to the unsupplemented control diet (control and sham control group). Dietary supplementation started 14 days before the first vaccination and lasted until the end of the experiment, 31 days after the first vaccination.
Vaccination experiments were performed using Influvac (Solvay Pharmaceuticals, Weesp, the Netherlands) from season 2005/2006. The mice received a primary vaccination and a booster vaccination, consisting of a subcutaneous (sc) injection of a 1:1 mix of vaccine and adjuvant in a total volume of 100 μl. The booster vaccination was given at 21 days after the primary vaccination. The experiments ended 10 days after booster vaccination. Negative control groups that were included received injections with a 1:1 mix of PBS and adjuvant in a total volume of 100 μl (sham control). Ear thickness was measured in duplicate before vaccine challenge and 24 h thereafter, using a digital micrometer (Mitutoyo Digimatic 293561, Veenendaal, the Netherlands). The DTH response was calculated by subtracting the basal ear thickness from the value at 24 h after challenge.

Q: What does the source list for 2′-fucosyllactose [1% 2′-FL]?
A: increase of DTH response (compared with control diet): 71%; effect on ear swelling / DTH response (in words) (compared with control-fed animals): increased ear swelling; Δ DTH (ear swelling DTH minus sham control): 80.4 μm; Relative DTH (Δ DTH relative to control diet (=1)): 1.71
